In publication PMC10709440, “High-throughput ligand profile characterization in novel cell lines expressing seven heterologous insect olfactory receptors for the detection of volatile plant biomarkers” (Scientific Reports, 2023):
Like-named read-outs stand apart in the source and are kept apart here.

Experiments:
Drosophila OR47a = biological target: T1, Drosophila OR47a (Drosophila melanogaster, UniProt P81921); experiment: Calcium ion fluorescence (GCaMP6) assay, OR47a stable HEK293 cell line; type: cell-based; conditions: for Average response / response intensity / OR47a response (VUAA1-normalized) at 1 μM / OR47a response (VUAA1-normalized) at 10 μM / OR47a response (VUAA1-normalized) at 100 μM: OR47a cell line; for Average response: mean of biological replicates; for DF norm AVERAGE OR47a: threshold 0.05, below shown as 0; for response intensity: of VUAA1 response
T1 construct: expressed in transfected cells
T1 sequence (P81921 1-385): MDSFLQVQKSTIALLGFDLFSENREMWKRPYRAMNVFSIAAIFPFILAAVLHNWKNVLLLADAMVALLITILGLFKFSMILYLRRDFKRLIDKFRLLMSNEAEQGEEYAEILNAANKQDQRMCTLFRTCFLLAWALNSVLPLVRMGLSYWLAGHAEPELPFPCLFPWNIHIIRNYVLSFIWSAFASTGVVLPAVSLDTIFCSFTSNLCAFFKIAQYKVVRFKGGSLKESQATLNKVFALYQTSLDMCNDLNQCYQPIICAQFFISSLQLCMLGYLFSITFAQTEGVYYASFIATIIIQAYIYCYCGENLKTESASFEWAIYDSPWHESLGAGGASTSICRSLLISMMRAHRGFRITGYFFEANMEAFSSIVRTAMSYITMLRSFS
T1 sequence (Q9VNB5 1-486 partner): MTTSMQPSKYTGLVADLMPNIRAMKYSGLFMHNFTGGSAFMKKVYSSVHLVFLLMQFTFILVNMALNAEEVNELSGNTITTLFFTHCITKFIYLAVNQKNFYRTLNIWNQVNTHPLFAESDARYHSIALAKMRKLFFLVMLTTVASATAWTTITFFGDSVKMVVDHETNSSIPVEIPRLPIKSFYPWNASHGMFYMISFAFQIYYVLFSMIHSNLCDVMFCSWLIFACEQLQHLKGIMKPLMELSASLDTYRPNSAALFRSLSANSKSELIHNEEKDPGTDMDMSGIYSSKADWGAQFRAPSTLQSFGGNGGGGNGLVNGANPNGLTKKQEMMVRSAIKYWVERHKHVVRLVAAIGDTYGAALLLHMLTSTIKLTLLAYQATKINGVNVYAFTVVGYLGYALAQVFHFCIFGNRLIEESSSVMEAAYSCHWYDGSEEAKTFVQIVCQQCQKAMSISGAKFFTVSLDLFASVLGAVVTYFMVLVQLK
In short: (§1)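 Responses are VUAA1-normalized ΔF: each VOC-evoked calcium signal, (FMAX−F0)/F0 over 30 s after injection, divided by the same line's mean 50 µM VUAA1 response. Cells were doxycycline-induced HEK293 with GCaMP6 and the cognate Drosophila OR, in HEPES buffer pH 7.3; ligands tested 0.01–100 μM.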

Drosophila OR71a = biological target: T2, Drosophila OR71a (Drosophila melanogaster, UniProt Q9VUK5); experiment: Calcium ion fluorescence (GCaMP6) assay, OR71a stable HEK293 cell line; type: cell-based; conditions: for activation at 1 µM / activation at 10 µM / activation at 100 µM: HEK293, read-out: OR71a response (VUAA1-normalized response); for Average response / OR71a response (VUAA1-normalized) at 1 μM / OR71a response (VUAA1-normalized) at 10 μM / OR71a response (VUAA1-normalized) at 100 μM: OR71a cell line; for Average response: VUAA1-normalized response, mean of biological replicates; for DF norm AVERAGE OR71a: threshold 0.05, below shown as 0; for OR71a Average response (VUAA1-normalized): 50 μM VUAA1 = 1
T2 construct: expressed in transfected cells
T2 sequence (Q9VUK5 1-378): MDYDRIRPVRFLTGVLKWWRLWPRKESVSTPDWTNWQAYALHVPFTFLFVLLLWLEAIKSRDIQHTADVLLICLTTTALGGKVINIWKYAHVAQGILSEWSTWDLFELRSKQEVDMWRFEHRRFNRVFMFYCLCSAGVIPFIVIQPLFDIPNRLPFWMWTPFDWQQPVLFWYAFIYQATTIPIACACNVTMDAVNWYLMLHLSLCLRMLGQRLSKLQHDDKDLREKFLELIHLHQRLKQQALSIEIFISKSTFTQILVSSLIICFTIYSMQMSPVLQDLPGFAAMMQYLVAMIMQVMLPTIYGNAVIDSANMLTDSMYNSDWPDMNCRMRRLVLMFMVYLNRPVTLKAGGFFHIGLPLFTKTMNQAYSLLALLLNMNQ
T2 sequence (Q9VNB5 1-486 partner): T1 sequence (Q9VNB5 1-486 partner)
In short: as §1

[1] = HEK293, read-out: OR47a Average response (VUAA1-normalized)
[2] = HEK293, read-out: OR47a response (VUAA1-normalized response)
[3] = ligand concentration 1 (unit not given)
[4] = ligand concentration 10 (unit not given)
[5] = ligand concentration 100 (unit not given)

Row | Compound | activation at 1 µM (Drosophila OR47a; [1]) | activation at 10 µM (Drosophila OR47a; [1]) | Average response (Drosophila OR47a; odorant cc. 1 µM) | Average response (Drosophila OR47a; odorant cc. 10 µM) | Average response (Drosophila OR47a; odorant cc. 100 µM) | DF norm AVERAGE OR47a (Drosophila OR47a; [3]) | DF norm AVERAGE OR47a (Drosophila OR47a; [4]) | DF norm AVERAGE OR47a (Drosophila OR47a; [5]) | Average response (Drosophila OR71a; cc. 1 µM) | Average response (Drosophila OR71a; cc. 10 µM) | Average response (Drosophila OR71a; cc. 100 µM) | DF norm AVERAGE OR71a (Drosophila OR71a; [3]) | DF norm AVERAGE OR71a (Drosophila OR71a; [4]) | DF norm AVERAGE OR71a (Drosophila OR71a; [5]) | OR47a response (VUAA1-normalized) at 1 μM (Drosophila OR47a; VOC concentration 1 μM) | OR47a response (VUAA1-normalized) at 10 μM (Drosophila OR47a; VOC concentration 10 μM) | OR47a response (VUAA1-normalized) at 100 μM (Drosophila OR47a; VOC concentration 100 μM) | OR71a response (VUAA1-normalized) at 1 μM (Drosophila OR71a; VOC concentration 1 μM) | OR71a response (VUAA1-normalized) at 10 μM (Drosophila OR71a; VOC concentration 10 μM) | OR71a response (VUAA1-normalized) at 100 μM (Drosophila OR71a; VOC concentration 100 μM) | also measured
1 | CC(=O)OCC(C)C [isobutyl acetate] | 19% | 15% | 0.19 | 0.15 | 0.65 | 0.1884 | 0.1518 | 0.646 | 0.038 | 0.0316 | 0.00 | 0 | 0 | 0 |  |  |  |  |  |  | activation at 100 µM (Drosophila OR47a; [1]): 65%; activation at 1 µM (Drosophila OR47a; [2]): 19%; activation at 10 µM (Drosophila OR47a; [2]): 15%; activation at 100 µM (Drosophila OR47a; [2]): 65%; activation at 1 µM (Drosophila OR71a): 0%; activation at 10 µM (Drosophila OR71a): 0%; activation at 100 µM (Drosophila OR71a): 0%
2 | CC(=O)OCCC(C)C [isopentyl acetate] | 0% | 12% | 0.00 | 0.12 | 0.18 | 0 | 0.1209 | 0.1752 | 0.0333 | 0.037 | 0.0218 | 0 | 0 | 0 |  |  |  |  |  |  | activation at 100 µM (Drosophila OR47a; [1]): 18%; activation at 1 µM (Drosophila OR47a; [2]): 0%; activation at 10 µM (Drosophila OR47a; [2]): 12%; activation at 100 µM (Drosophila OR47a; [2]): 18%; response intensity (Drosophila OR47a; 10 μM): 12%; response intensity (Drosophila OR47a; 100 μM): 18%; activation at 1 µM (Drosophila OR71a): 0%; activation at 10 µM (Drosophila OR71a): 0%; activation at 100 µM (Drosophila OR71a): 0%
3 | C=C(C)[C@H]1CC=C(C)CC1 [limonene] |  |  | 0.0214 | 0.00 | 0.00 | 0 | 0 | 0 | 0.00 | 0.00 | 0.00 | 0 | 0 | 0 |  |  |  |  |  |  | OR47a response (VUAA1-normalized response) (Drosophila OR47a; VOC concentration 1 μM): 0.00; OR47a response (VUAA1-normalized response) (Drosophila OR47a; VOC concentration 10 μM): 0.00; OR47a response (VUAA1-normalized response) (Drosophila OR47a; VOC concentration 100 μM): 0.00; OR71a response (VUAA1-normalized response) (Drosophila OR71a; VOC concentration 1 μM): 0.00; OR71a response (VUAA1-normalized response) (Drosophila OR71a; VOC concentration 10 μM): 0.00; OR71a response (VUAA1-normalized response) (Drosophila OR71a; VOC concentration 100 μM): 0.00
4 | C=CC(C)(O)CCC=C(C)C (centres unmarked) [linalool] |  |  | 0.00 | 0.0374 | 0.00 | 0 | 0 | 0 | 0.00 | 0.0443 | 0.0124 | 0 | 0 | 0 | 0.00 | 0.00 | 0.00 | 0.00 | 0.00 | 0.00 | 
5 | Cc1cccc(C)c1 [m-xylene] |  |  | 0.00 | 0.00 | 0.00 | 0 | 0 | 0 | 0.00 | 0.00 | 0.00 | 0 | 0 | 0 | 0.00 | 0.00 | 0.00 | 0.00 | 0.00 | 0.00 | 
6 | COC(=O)c1ccccc1 [methyl benzoate] |  |  | 0.0138 | 0.00 | 0.06 | 0 | 0 | 0.05948 | 0.00 | 0.00 | 0.0121 | 0 | 0 | 0 | 0.00 | 0.00 | 0.06 | 0.00 | 0.00 | 0.00 | 
7 | COC(=O)c1ccccc1O [methyl salicylate] | 11% | 1% | 0.11 | 0.00759 | 0.14 | 0.1126 | 0 | 0.1364 | 0.00 | 0.0108 | 0.12 | 0 | 0 | 0.1155 | 0.11 | 0.00 | 0.14 | 0.00 | 0.00 | 0.12 | activation at 100 µM (Drosophila OR47a; [1]): 14%; OR71a Average response (VUAA1-normalized) (Drosophila OR71a; 1 μM VOC): 0.00; OR71a Average response (VUAA1-normalized) (Drosophila OR71a; 10 μM VOC): 0.01; OR71a Average response (VUAA1-normalized) (Drosophila OR71a; 100 μM VOC): 0.12
8 | CCCCCCCCC=O [nonanal] |  |  | 0.00 | 0.00 | 0.00 | 0 | 0 | 0 | 0.00 | 0.00 | 0.00 | 0 | 0 | 0 | 0.00 | 0.00 | 0.00 | 0.00 | 0.00 | 0.00 | 
9 | Cc1ccccc1C [o-xylene] |  |  | 0.00 | 0.00 | 0.00 | 0 | 0 | 0 | 0.00 | 0.00 | 0.00 | 0 | 0 | 0 | 0.00 | 0.00 | 0.00 | 0.00 | 0.00 | 0.00 | 
